Measurements reported in patent publication US20250019386A1, “PYRROLO[1,2-b]-2-PYRIDAZINONE COMPOUNDS AS 5-HT4 RECEPTOR AGONISTS” (SUVEN LIFE SCIENCES LIMITED, priority 2022, published 2025).

Assays:
5-HT4 receptors = 5-HT4 receptors (Homo sapiens (Human), UniProt Q13639); test: Determination of EC50 values for 5-HT4 receptor (pCRE-Luc reporter assay); assay type: cell-based; conditions: CHO cells expressing recombinant human 5-HT4 receptor and pCRE-Luc reporter; 4 h incubation; luciferase activity
Method: A stable CHO cell line expressing recombinant human 5-HT4 receptor and pCRE-Luc reporter system was used for cell-based assay. The assay offers a non-radioactive based approach to determine binding of a compound to GPCRs. In this specific assay, the level of intracellular cyclic AMP, which is modulated by activation, or inhibition of the receptor is measured. The recombinant cells harbor luciferase reporter gene under the control of cAMP response element.
The above cells were grown in 96 well clear bottom white plates in Ham's F12 medium containing 10% fetal bovine serum. Prior to the addition of compounds or standard agonist, cells were serum starved overnight. Increasing concentrations of test compounds were added to the cells in OptiMEM medium. The incubation was continued in CO2 incubator at 37° C. with 5% CO2 conditions for 4 h. Medium was removed and cells were washed with phosphate buffered saline. The cells were lysed and luciferase activity was measured in a Luminometer. Concentration-response data was generated using the luciferase assay, following incubation of cells with receptor ligands, were analyzed by subtracting basal levels (i.e. with medium alone), then normalizing values as a percentage of controls (endogenous agonist serotonin (10 μM)). […] EC50 values of the compounds were defined as the concentration required in stimulating the luciferase activity by 50%.

[1] = target: hERG tail currents in HEK293-hERG cells (Homo sapiens (Human), UniProt Q12809); test: hERG patch-clamp assay; assay type: cell-based; conditions: whole cell patch-clamp, tail current at -40 mV, read-out: half maximal inhibitory concentration of hERG tail currents (IC50)
Method: The HEK293-hERG cells for patch-clamp assay were cultured in DMEM: Ham's F12 (1:1 ratio) with 10% fetal bovine serum containing 0.5 mg/ml of selective antibiotic, G-418 sulfate (Calbiochem) and 0.1% penicillin and streptomycin (Thermofisher, MA, USA) in T-75 flask. Cells were harvested at 70-80% confluency by washing with Hanks' Balanced Salt Solution lacking Mg^2+ and Ca^2+ ions and subsequent addition of accumax (2.5 mL) (Sigma Aldrich, MO, USA) and incubated the flask at 5% CO2 and 37° C. until cells start sliding of the surface. After cells have completely detached from the surface about 10 mL of complete media without selective antibiotic was added and pipetted to detach the cell clumps. Additional 7.5 mL of complete media was added to collect the residual cells in the flask and cell suspension was incubated at 5% CO2 and 37° C. for 30 min. […] The peak current is measured at −40 mV tail currents using Patchliner instrument. The I-V pulse protocol was pulsed every 10 s and online analysis were recorded by substituting the leak current from the peak current and IC50 values were calculated from IGOR PRO software (WaveMetrics, Inc. Portland, OR, USA).

Sequence of 5-HT4 receptors (Q13639 whole entry): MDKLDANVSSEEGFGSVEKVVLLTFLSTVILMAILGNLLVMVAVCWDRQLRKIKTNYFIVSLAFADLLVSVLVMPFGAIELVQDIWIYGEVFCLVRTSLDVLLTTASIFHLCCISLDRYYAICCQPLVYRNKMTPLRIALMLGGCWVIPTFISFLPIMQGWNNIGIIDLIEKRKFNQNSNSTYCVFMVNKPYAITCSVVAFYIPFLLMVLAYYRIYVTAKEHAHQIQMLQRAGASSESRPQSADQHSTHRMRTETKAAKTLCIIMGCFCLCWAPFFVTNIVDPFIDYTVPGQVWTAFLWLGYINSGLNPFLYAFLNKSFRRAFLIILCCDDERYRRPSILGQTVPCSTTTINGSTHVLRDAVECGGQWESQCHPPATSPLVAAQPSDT
Sequence of hERG tail currents in HEK293-hERG cells (Q12809 whole entry): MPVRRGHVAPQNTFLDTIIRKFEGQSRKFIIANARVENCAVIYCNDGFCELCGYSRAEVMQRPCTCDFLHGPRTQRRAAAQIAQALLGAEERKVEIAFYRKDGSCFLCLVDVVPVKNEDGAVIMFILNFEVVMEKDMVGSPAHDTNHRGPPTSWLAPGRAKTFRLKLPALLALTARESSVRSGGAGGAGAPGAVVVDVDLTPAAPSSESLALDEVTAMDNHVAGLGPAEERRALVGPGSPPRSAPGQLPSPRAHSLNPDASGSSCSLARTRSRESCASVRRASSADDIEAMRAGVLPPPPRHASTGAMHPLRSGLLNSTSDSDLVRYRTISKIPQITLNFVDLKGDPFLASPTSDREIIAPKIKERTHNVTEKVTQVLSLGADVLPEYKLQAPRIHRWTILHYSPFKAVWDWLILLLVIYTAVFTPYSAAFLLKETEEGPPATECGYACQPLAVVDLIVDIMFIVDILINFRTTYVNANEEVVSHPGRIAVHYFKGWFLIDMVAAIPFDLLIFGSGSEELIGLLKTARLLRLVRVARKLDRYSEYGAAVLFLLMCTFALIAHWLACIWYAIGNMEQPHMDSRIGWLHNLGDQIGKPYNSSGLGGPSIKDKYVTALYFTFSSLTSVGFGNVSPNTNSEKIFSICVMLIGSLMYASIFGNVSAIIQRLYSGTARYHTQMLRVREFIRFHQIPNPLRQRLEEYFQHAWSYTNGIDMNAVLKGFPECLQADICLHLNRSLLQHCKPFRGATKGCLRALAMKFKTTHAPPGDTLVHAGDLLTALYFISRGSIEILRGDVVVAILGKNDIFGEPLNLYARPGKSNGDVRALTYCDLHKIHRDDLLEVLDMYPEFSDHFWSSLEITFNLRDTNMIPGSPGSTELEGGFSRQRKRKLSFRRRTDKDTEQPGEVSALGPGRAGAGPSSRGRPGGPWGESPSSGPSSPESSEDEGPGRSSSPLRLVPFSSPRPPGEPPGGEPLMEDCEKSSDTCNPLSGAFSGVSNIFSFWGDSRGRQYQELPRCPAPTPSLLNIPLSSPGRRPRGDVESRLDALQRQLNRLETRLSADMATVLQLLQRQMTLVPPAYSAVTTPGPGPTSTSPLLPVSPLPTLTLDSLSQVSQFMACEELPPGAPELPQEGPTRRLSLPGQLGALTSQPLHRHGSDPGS

`CC(C)n1c(=O)c(C(=O)NC2CC3CCC(C2)N3C[C@@H](O)CN(C)S(C)(=O)=O)cc2cccn21.O=C(O)C(O)C(O)C(=O)O` (single isomer, unassigned) [Example 2] gave an EC50 (5-HT4 receptors) of 4.1 nM and an IC50 [1] of over 10000 nM.
